Measurements from patent US6063814A, “Phorbol esters as anti-neoplastic and white blood cell elevating agents” (priority 1997, dated 2000).
Values joined by “and” are separate entries in the source; they are usually repeats but may differ in a detail not shown here. Identical values can stand only once.

Key:
HL-60 cells = test: TPA + low doses of Ara-C, HL-60 differentiation; type: cell-based, human
Description: (2) TPA+Low Doses of Ara-C:

[1] = tested on: leukemia (bone marrow myeloblast and promyelocyte); test: Clinical treatment of leukemia patients with TPA; type: in vivo, humans; conditions: for bone marrow suppression, infection or bleeding: during and after treatment; for Spleen below the rib cage after treatment: 3 cm before
Protocol: The results obtained upon treatment of patients with TPA as presented in tabular form and in subsequent examples.
In the subjects identified as (1) through (5) below, chronic myelocytic leukemia had progressed to acute myelocytic leukemia before treatment with TPA.
Subject No. (1), patient No. 28879. Blood profile before TPA treatment: Hb: 28 g/L; WBC: 1.0×10^9 /L, platelet: 135×10^9 /L. Bone marrow profile before TPA treatment: myeloblast+promyelocyte: 30%. TPA treatment: 1 mg/week (0.25 mg administered four times) for two weeks. Blood profile after treatment: Hb: 86 g/L; WBC: 2.8×10^9 /L, platelet: 283×10^9 /L. Bone marrow profile after TPA treatment: myeloblast+promyelocyte: 2.5%.
Subject No. (2), patient No. 29926. Diagnosis: chronic myelocytic leukemia became acute myelocytic leukemia before treatment. Blood profile before TPA treatment: Hb: 94 g/L; WBC: 9.8×10^9 /L, platelet: 63×10^9 /L. Spleen: 3 cm below the rib cage. Bone marrow profile before TPA treatment: myeloblast+promyelocyte: 36%. TPA treatment: 1 mg/week for 5 weeks. Blood profile after treatment: Hb: 104 g/L; WBC: 4.9×10^9 /L, platelet: 80×10^9 /L. Spleen: 0.5 cm below the rib cage. Bone marrow profile after TPA treatment: myeloblast+promyelocyte: 3%.
Subject No. (3), patient No. 18102. Diagnosis: chronic myelocytic leukemia became acute myelocytic leukemia before treatment. Blood profile before TPA treatment: Hb: 70 g/L; WBC: 27.5×10^9 /L, platelet: 21×10^9 /L. Bone marrow profile before TPA treatment: myeloblast+promyelocyte: 90%. TPA treatment: 1 mg/week for 7 weeks. Blood profile after treatment: Hb: 96 g/L; WBC: 22×10^9 /L, platelet: 70×10^9 /L. Bone marrow profile after TPA treatment: myeloblast+promyelocyte: 2%.
Subject No. (4), patient No. 21315. Diagnosis: chronic myelocytic leukemia became acute myelocytic leukemia before treatment. Blood profile before TPA treatment: Hb: 87 g/L; WBC: 19×10^9 /L, platelet: 150×10^9 /L. Bone marrow profile before TPA treatment: myeloblast+promyelocyte: 67.5%. TPA treatment: 1 mg/week for 7 weeks. Blood profile after treatment: Hb: 45 g/L; WBC: 53.5×10^9 /L, platelet: 210×10^9 /L. Bone marrow profile after TPA treatment: myeloblast+promyelocyte: 4.5%.
Subject No. (5), patient No. 23965. Diagnosis: chronic myelocytic leukemia progressed to acute myelocytic leukemia. Blood profile before TPA treatment: Hb: 84 g/L; WBC: 36.6×10^9 /L, platelet: 290×10^9 /L. Bone marrow profile before TPA treatment: myeloblast+promyelocyte: 27.5%. TPA treatment: 1 mg/week for 2 weeks. Blood profile after treatment: Hb: 84 g/L; WBC: 27.3×10^9 /L, platelet: 170×10^9 /L. Bone marrow profile after TPA treatment: myeloblast+promyelocyte: 1.5%.
All the above patients had received various regimens of chemotherapy prior to the TPA treatment, including hydroxyurea, busulfan, and Ara-C, etc. but none was effective at the start of TPA treatment. Before the administration of TPA, patients received injection of 6×10^5 units of vitamin D3 (VD3)/person for 2 days; after the TPA administration, patients received i.v. infusion of 40 mg of Ara-C/d×3. […] These patients have been in clinical remission for over 6 months.
Subject No. (6), person. Diagnosed as AML-M3. Symptoms began in January, 1995. Blood profile: Hb:60 g/L, WBC: 0.4×10^9 /L, platelet: 40×10^9 /L. Bone marrow profile: myeloblast+promyelocyte: 48%. The TPA treatment period was 1 mg/week for three weeks, and 6×10^5 units VD3 /d×3 were injected prior to the treatment. […] The patient has been in remission after treatment for at least 6 months.
Subject No. (7), person. Diagnosis: MDS-REAB accompanied by an increased number of monocytes. […] The patient started to receive a combination treatment of 1,25-(OH)2 VD3 +TPA+low dose Ara-C. TPA dosage: 0.25-0.5 mg (1 mg per week) for eleven weeks. […]

mouse skin = conditions: cited from earlier work
[2] = subject 6, AML-M3, TPA 1 mg/week three weeks, VD3 prior
[3] = subject 7, MDS-REAB, 1,25-(OH)2 VD3+TPA+low dose Ara-C, eleven weeks
[4] = subject 7, combination with 1,25-(OH)2 VD3 and Ara-C
[5] = subject 7, combination with 1,25-(OH)2 VD3 and Ara-C, blood
[6] = subject 8, AML-M3, retinoic acid failed
[7] = subject 9, secondary aplastic anemia, TPA 0.25 mg×2
[8] = subject 10, CML, TPA 0.25 mg once
[9] = subject 10, CML, TPA 0.25 mg once, second day
[10] = subjects 1-5, VD3 before, Ara-C after TPA

## CCCCCCCCCCCCCC(=O)O[C@@H]1[C@@H](C)[C@@]2(O)[C@@H](C=C(CO)C[C@]3(O)C(=O)C(C)=C[C@@H]23)[C@@H]2C(C)(C)[C@]12OC(C)=O [TPA, Phorbol 12-Myristate-13-Acetate]
HL-60 cells; TPA alone, low dose 20 ng/ml
  HL-60 cell differentiation: weak cell differentiation-inducing agent
HL-60 cells; combination of TPA and Ara-C
  HL-60 cell differentiation: induced the HL-60 cells to differentiate synergistically
[1]; CML progressed to AML, TPA 1 mg/week for 2-7 weeks, VD3 before, Ara-C after
  Bone marrow myeloblast+promyelocyte after TPA treatment: 2.5% and 3% and 2% and 4.5% and 1.5%
[1]; many of the patients, from first treatment
  duration of clinical remission: over six months
[1]; refractory leukemia patients
  clinical remission: clinical remission was achieved in a relatively short time
  bone marrow suppression, infection or bleeding: no bone marrow suppression, infection or bleeding
[1]; subject 2, TPA 1 mg/week for 5 weeks
  Spleen below the rib cage after treatment: 0.5 cm
[1]; subject 6, AML-M3
  duration of remission: at least 6 months
  remission: met the standard for AML-M3 remission
[1]; [2]
  Bone marrow myeloblast+promyelocyte after first treatment period: 3%
  Hb after first treatment period: 118 g/L
  WBC after first treatment period: 4.1e+09 L⁻¹
  platelet after first treatment period: 8e+10 L⁻¹
[1]; [3]
  Hb after treatment: 42 g/L
  WBC after treatment: 1.02e+10 L⁻¹
  platelet after treatment: 3.4e+10 L⁻¹
  Spleen below the rib cage after treatment: 0.5 cm
[1]; [4]
  Bone marrow myeloblast after treatment: 4%
  Bone marrow promyelocyte after treatment: 6%
[1]; [5]
  Lymphocyte after treatment: 19%
  Monocyte after treatment: 1%
  Neutrophil after treatment: 80%
  Promyelocytes in blood after treatment: not detected
[1]; [6]
  WBC after TPA treatment: 2.2e+09 L⁻¹
  platelet after TPA treatment: 2.23e+11 L⁻¹
[1]; [7]
  Hb after TPA treatment: 32 g/L
  platelet after TPA treatment: 5.7e+10 L⁻¹
[1]; [8]
  Hb after treatment: 96 g/L
  WBC after treatment: 2e+09 L⁻¹
  platelet after treatment: 1.12e+11 L⁻¹
[1]; [9]
  myeloblast+promyelocyte: 4%
  myelocyte: 5%
[1]; [10]
  clinical remission in bone marrow parameters: all achieved clinical remission in bone marrow parameters in a short time
  duration of clinical remission: over 6 months
[1]; subjects 1-5
  bone marrow suppression, infection or bleeding: no bone marrow suppression, nor infection or bleeding
Mouse skin; Chemsyn product brochure
  mouse skin cancer promotion: extremely potent mouse skin cancer promoter
Mouse skin; Merck Index, 11th Edition
  tumor promotion: co-carcinogen or tumor promoter
